Patent publication US12371410B2, “Isoxazoline compounds and use thereof” (METISA BIOTECHNOLOGY CO., LTD, priority 2019, dated 2025)

Assays:
Type in all cases: in vivo
Plutella xylostella = assay: Insecticidal activity against Plutella xylostella, Airbrush spraying of cabbage leaf discs; details: foliar, 72 h; for pest or weed control at 0.156 µg/mL: dose 0.156 mg/L; for pest or weed control at 0.156 µg/mL / pest or weed control at 0.313 µg/mL: three days after administration, 3rd instar larvae, read-out: lethality rate to Plutella xylostella; for pest or weed control at 0.313 µg/mL: dose 0.313 mg/L; for mortality at 0.156 µg/mL: 0.156 mg/L, read-out: Mortality (%, 3 days after administration) 0.156 mg/L; for mortality at 0.156 µg/mL / mortality at 0.313 µg/mL / mortality at 0.625 µg/mL / mortality at 1.25 µg/mL: parallel comparative test; for mortality at 0.313 µg/mL: 0.313 mg/L, read-out: Mortality (%, 3 days after administration) 0.313 mg/L; for mortality at 0.625 µg/mL: 0.625 mg/L, read-out: Mortality (%, 3 days after administration) 0.625 mg/L; for mortality at 1.25 µg/mL: 1.25 mg/L, read-out: Mortality (%, 3 days after administration) 1.25 mg/L
Description: (§1) The compound to be determined was dissolved in a mixed solvent of acetone/methanol (1:1), followed by dilution with water containing 0.1% (wt) Tween 80 to a desired concentration.
(§2) The activities of the respective compounds against Leucania separata, Plutella xylostella, and Chilo suppressalis were determined by Airbrush spraying method.
(§3) The determination method was as follows: Cabbage leaves were made into leaf discs with a diameter of 2 cm by using a hole puncher; the pressure of Airbrush spraying was 10 psi (about 0.7 kg/cm^2); both sides of each leaf disc were sprayed with 0.5 mL of the compound solution to be tested. After drying in the shade, ten 3rd instar larvae were inoculated for each treatment, and each treatment was replicated 3 times. After treatment, they were cultured in an observation room at a temperature of 25° C. and a relative humidity of 60-70%, and the number of surviving insects was examined and the mortality was calculated three days after administration.

Chilo suppressalis = assay: Insecticidal activity against Chilo suppressalis, spraying of rice seedlings; details: 72 h; for pest or weed control at 0.5 µg/mL: dose 0.5 mg/L; for pest or weed control at 0.5 µg/mL / pest or weed control at 1 µg/mL: 3 days after administration, 3rd instar larvae, read-out: lethality rate to Chilo suppressalis; for pest or weed control at 1 µg/mL: dose 1 mg/L; for mortality at 0.25 µg/mL: 0.25 mg/L, read-out: Mortality (%, 3 days after administration) 0.25 mg/L; for mortality at 0.25 µg/mL / mortality at 0.5 µg/mL / mortality at 1 µg/mL / mortality at 5 µg/mL: parallel comparative test; for mortality at 0.5 µg/mL: 0.5 mg/L, read-out: Mortality (%, 3 days after administration) 0.5 mg/L; for mortality at 1 µg/mL: 1 mg/L, read-out: Mortality (%, 3 days after administration) 1 mg/L; for mortality at 5 µg/mL: 5 mg/L, read-out: Mortality (%, 3 days after administration) 5 mg/L
Description: as §1, §2
The determination method was as follows: 1) Preparation of rice seedlings: rice plants were cultivated in a plastic cup with a diameter of 4.5 cm and a height of 4 cm in a thermostatic chamber (temperature 26-28° C., relative humidity 60-80%, illumination 16 hL: 8 hD), and when the rice plants were developed to have 4-5 leaves, strong seedlings with identical growth vigour were selected for chemical treatment, and each treatment was replicated 3 times. 2) Preparation of insects to be tested: Chilo suppressalis, 3rd instar larvae, continuous lab rearing. 3) Inoculation of insects by spraying rice plant stems: The whole rice seedlings were sprayed evenly by using the spraying method, with 15 mL of the compound solution for each treatment. Firstly, the blank control was treated, and then the above procedure was replicated according to the order of test concentration from low to high. After rice seedlings were spray-treated, they were placed in the shade to dry, and the stems about 5 cm from the stem bases were cut off to feed the insects to be tested. Glass culture dishes with a diameter of 90 mm were prepared; each dish was padded with a filter paper at the bottom and added with water to keep moisture; about 5 rice stems were put into each dish and inoculated with 10 larvae, and each culture dish was then sealed with a non-woven and cultured in a thermostatic chamber. The number of residual live insects was examined 3 days after administration.

Leucania separata = assay: Insecticidal activity against Leucania separata, Airbrush spraying of corn leaf segments; details: Mythimna separata, foliar, 72 h; dose 0.05 mg/L, three days after administration, 3rd instar larvae; read-out: lethality rate to Leucania separata
Description: as §1, §2
as §3, with “Corn” for “Cabbage”, “cut” for “made”, “into” for “into leaf discs with a diameter of”, “long segments;” for “by using a hole puncher;”, “segment” for “disc”, “3nd” for “3rd”

Tetranychus cinnabarinus = assay: Acaricidal activity against Tetranychus cinnabarinus in greenhouse, bean seedling spraying; details: solution concentration 5 mg/L, adult mites, after 72 hours, read-out: lethality rate to Tetranychus cinnabarinus
Description: A bean seedling with two true leaves was taken for inoculating 30-40 adult mites of Tetranychus cinnabarinus. After examining the cardinal number, the whole seedling was treated by spraying with a hand-held sprayer, each treatment being replicated 3 times, and then placed in a standard observation room. The number of surviving mites was examined after 72 hours, and the mortality was calculated.

CCOCCC(=O)N(CC(=O)NCC(F)(F)F)C(=O)c1ccc(C2=NOC(c3cc(Cl)cc(Cl)c3)(C(F)(F)F)C2)cc1C (stereo not shown) [Compound 33]
pest or weed control at 0.156 µg/mL (Plutella xylostella): > 90% | pest or weed control at 0.313 µg/mL (Plutella xylostella): > 90% | pest or weed control at 0.5 µg/mL (Chilo suppressalis): > 90% | pest or weed control at 1 µg/mL (Chilo suppressalis): > 90% | pest or weed control at 0.05 µg/mL (Leucania separata): > 90% | pest or weed control at 5 µg/mL (Tetranychus cinnabarinus): ≥ 90%

CCC(=O)N(CC(=O)NCC(F)(F)F)C(=O)c1ccc(C2=NOC(c3cc(Cl)cc(Cl)c3)(C(F)(F)F)C2)cc1C (stereo not shown) [KC3, reference compound]
mortality at 0.25 µg/mL (Chilo suppressalis): 0% | mortality at 0.5 µg/mL (Chilo suppressalis): 30% | mortality at 1 µg/mL (Chilo suppressalis): 100% | mortality at 5 µg/mL (Chilo suppressalis): 100%

COC(=O)N(CC(=O)NCC(F)(F)F)C(=O)c1ccc(C2=NOC(c3cc(Cl)cc(Cl)c3)(C(F)(F)F)C2)cc1C (stereo not shown) [KC1, reference compound]
mortality at 0.156 µg/mL (Plutella xylostella): 20% | mortality at 0.313 µg/mL (Plutella xylostella): 36.7% | mortality at 0.625 µg/mL (Plutella xylostella): 70% | mortality at 1.25 µg/mL (Plutella xylostella): 100% | mortality at 0.25 µg/mL (Chilo suppressalis): 0% | mortality at 0.5 µg/mL (Chilo suppressalis): 0% | mortality at 1 µg/mL (Chilo suppressalis): 0% | mortality at 5 µg/mL (Chilo suppressalis): 10% | pest or weed control at 5 µg/mL (Tetranychus cinnabarinus): 0%

Cc1cc(C2=NOC(c3cc(Cl)cc(Cl)c3)(C(F)(F)F)C2)ccc1C(=O)N(CC(=O)NCC(F)(F)F)C(=O)C1CC1 (stereo not shown) [Compound 1]
pest or weed control at 0.313 µg/mL (Plutella xylostella): > 90% | mortality at 0.25 µg/mL (Chilo suppressalis): 73.3% | mortality at 0.5 µg/mL (Chilo suppressalis): 83.3% | mortality at 1 µg/mL (Chilo suppressalis): 100% | mortality at 5 µg/mL (Chilo suppressalis): 100% | pest or weed control at 1 µg/mL (Chilo suppressalis): > 90% | pest or weed control at 0.05 µg/mL (Leucania separata): > 90% | pest or weed control at 5 µg/mL (Tetranychus cinnabarinus): ≥ 90%

CCOCCC(=O)N(CC(=O)NCC(F)(F)F)C(=O)c1ccc(C2=NOC(c3cc(Cl)c(F)c(Cl)c3)(C(F)(F)F)C2)cc1C (stereo not shown) [Compound 34]
pest or weed control at 0.156 µg/mL (Plutella xylostella): > 90% | pest or weed control at 0.313 µg/mL (Plutella xylostella): > 90% | pest or weed control at 1 µg/mL (Chilo suppressalis): > 90% | pest or weed control at 0.05 µg/mL (Leucania separata): > 90% | pest or weed control at 5 µg/mL (Tetranychus cinnabarinus): ≥ 90%

CCOCC(=O)N(CC(=O)NCC(F)(F)F)C(=O)c1ccc(C2=NOC(c3cc(Cl)cc(Cl)c3)(C(F)(F)F)C2)cc1C (stereo not shown) [Compound 21]
pest or weed control at 0.156 µg/mL (Plutella xylostella): > 90% | pest or weed control at 0.313 µg/mL (Plutella xylostella): > 90% | pest or weed control at 0.5 µg/mL (Chilo suppressalis): > 90% | pest or weed control at 1 µg/mL (Chilo suppressalis): > 90% | pest or weed control at 0.05 µg/mL (Leucania separata): > 90% | pest or weed control at 5 µg/mL (Tetranychus cinnabarinus): ≥ 90%

CCOCC(=O)N(CC(=O)NCC(F)(F)F)C(=O)c1ccc(C2=NOC(c3cc(Cl)c(F)c(Cl)c3)(C(F)(F)F)C2)cc1C (stereo not shown) [Compound 22]
pest or weed control at 0.156 µg/mL (Plutella xylostella): > 90% | pest or weed control at 0.313 µg/mL (Plutella xylostella): > 90% | pest or weed control at 1 µg/mL (Chilo suppressalis): > 90% | pest or weed control at 0.05 µg/mL (Leucania separata): > 90% | pest or weed control at 5 µg/mL (Tetranychus cinnabarinus): ≥ 90%

COCCC(=O)N(CC(=O)NCC(F)(F)F)C(=O)c1ccc(C2=NOC(c3cc(Cl)cc(Cl)c3)(C(F)(F)F)C2)cc1C (stereo not shown) [Compound 31]
mortality at 0.156 µg/mL (Plutella xylostella): 100% | mortality at 0.313 µg/mL (Plutella xylostella): 100% | mortality at 0.625 µg/mL (Plutella xylostella): 100% | mortality at 1.25 µg/mL (Plutella xylostella): 100% | pest or weed control at 0.156 µg/mL (Plutella xylostella): > 90% | pest or weed control at 0.313 µg/mL (Plutella xylostella): > 90% | mortality at 0.25 µg/mL (Chilo suppressalis): 80% | mortality at 0.5 µg/mL (Chilo suppressalis): 96.7% | mortality at 1 µg/mL (Chilo suppressalis): 100% | mortality at 5 µg/mL (Chilo suppressalis): 100% | pest or weed control at 0.5 µg/mL (Chilo suppressalis): > 90% | pest or weed control at 1 µg/mL (Chilo suppressalis): > 90% | pest or weed control at 0.05 µg/mL (Leucania separata): > 90% | pest or weed control at 5 µg/mL (Tetranychus cinnabarinus): ≥ 90%

COCC(=O)N(CC(=O)NCC(F)(F)F)C(=O)c1ccc(C2=NOC(c3cc(Cl)cc(Cl)c3)(C(F)(F)F)C2)cc1C (stereo not shown) [Compound 19]
mortality at 0.156 µg/mL (Plutella xylostella): 100% | mortality at 0.313 µg/mL (Plutella xylostella): 100% | mortality at 0.625 µg/mL (Plutella xylostella): 100% | mortality at 1.25 µg/mL (Plutella xylostella): 100% | pest or weed control at 0.156 µg/mL (Plutella xylostella): > 90% | pest or weed control at 0.313 µg/mL (Plutella xylostella): > 90% | mortality at 0.25 µg/mL (Chilo suppressalis): 86.7% | mortality at 0.5 µg/mL (Chilo suppressalis): 100% | mortality at 1 µg/mL (Chilo suppressalis): 100% | mortality at 5 µg/mL (Chilo suppressalis): 100% | pest or weed control at 0.5 µg/mL (Chilo suppressalis): > 90% | pest or weed control at 1 µg/mL (Chilo suppressalis): > 90% | pest or weed control at 0.05 µg/mL (Leucania separata): > 90% | pest or weed control at 5 µg/mL (Tetranychus cinnabarinus): ≥ 90%

Cc1cc(C2=NOC(c3cc(Cl)c(F)c(Cl)c3)(C(F)(F)F)C2)ccc1C(=O)N(CC(=O)NCC(F)(F)F)C(=O)C1CC1 (stereo not shown) [Compound 2]
pest or weed control at 0.313 µg/mL (Plutella xylostella): > 90% | pest or weed control at 1 µg/mL (Chilo suppressalis): > 90% | pest or weed control at 0.05 µg/mL (Leucania separata): > 90% | pest or weed control at 5 µg/mL (Tetranychus cinnabarinus): ≥ 90%

CCCCOCC(=O)N(CC(=O)NCC(F)(F)F)C(=O)c1ccc(C2=NOC(c3cc(Cl)cc(Cl)c3)(C(F)(F)F)C2)cc1C (stereo not shown) [Compound 27]
pest or weed control at 0.156 µg/mL (Plutella xylostella): > 90% | pest or weed control at 0.313 µg/mL (Plutella xylostella): > 90% | pest or weed control at 0.5 µg/mL (Chilo suppressalis): > 90% | pest or weed control at 1 µg/mL (Chilo suppressalis): > 90% | pest or weed control at 0.05 µg/mL (Leucania separata): > 90% | pest or weed control at 5 µg/mL (Tetranychus cinnabarinus): ≥ 90%

CC(=O)N(CC(=O)NCC(F)(F)F)C(=O)c1ccc(C2=NOC(c3cc(Cl)cc(Cl)c3)(C(F)(F)F)C2)cc1C (stereo not shown) [KC2, reference compound]
mortality at 0.25 µg/mL (Chilo suppressalis): 0% | mortality at 0.5 µg/mL (Chilo suppressalis): 53.3% | mortality at 1 µg/mL (Chilo suppressalis): 100% | mortality at 5 µg/mL (Chilo suppressalis): 100%
